The text below walks through data of the NIST ThermoML archive (doi:10.1016/j.jct.2013.12.025).

The conditions of data set [1]: 101 kPa, Liquid, Vibrating tube method.
A short description of data set [2]: refractive index (Na D-line) (dimensionless). To be noted: 101.33 kPa, Liquid, Standard Abbe refractometry.
Data set [3] is described as follows: refractive index (Na D-line) (dimensionless); xn = mol fraction of the nth substance listed. To be noted: 101 kPa, Liquid, Standard Abbe refractometry, x2 = 0.
Data set [4] in a line: xn = mol fraction of the nth substance listed. To be noted: 101 kPa, Liquid, Vibrating tube method, x2 = 0.

± gives the expanded uncertainty stated by the source.

As for `CCc1ccccc1` [ethylbenzene], the mass density (in general, mass per unit of volume) in data set [1] (283.15 K) is 875.69 ± 1 kg/m3; in data set [1] (288.15 K) it was 871.3 ± 1 kg/m3; in data set [1] (293.15 K), 866.9 ± 1 kg/m3; in data set [1] (298.15 K), 862.58 ± 1 kg/m3; in data set [1] (303.15 K), 858.16 ± 1 kg/m3. In addition, the refractive index (in general, the speed of light in vacuum divided by its phase velocity in the sample) in data set [2] (283.15 K) came to 1.50118 ± 0.00032; in data set [2] (288.15 K), 1.49845 ± 0.00032; in data set [2] (293.15 K) it was 1.49575 ± 0.00032; in data set [2] (298.15 K), 1.49301 ± 0.00032; in data set [2] (303.15 K), 1.4903 ± 0.00032.
Take `Clc1ccccc1` [chlorobenzene] + C=C[Si](C)(C)O[Si](C)(C)C=C: the refractive index worked out at 1.52992 ± 0.00032 in data set [3] (283.15 K); 1.52722 ± 0.00032 in data set [3] (288.15 K); 1.52446 ± 0.00032 in data set [3] (293.15 K); 1.52168 ± 0.00032 in data set [3] (298.15 K); 1.51893 ± 0.00032 in data set [3] (303.15 K). Besides, the mass density in data set [4] (283.15 K) is 1117.29 ± 1 kg/m3; in data set [4] (288.15 K), 1111.89 ± 1 kg/m3; in data set [4] (293.15 K) it was 1106.55 ± 1 kg/m3; in data set [4] (298.15 K), 1101.16 ± 1 kg/m3; in data set [4] (303.15 K), 1095.79 ± 1 kg/m3.
Turning to `O=[N+]([O-])c1ccccc1` [nitrobenzene], the mass density in data set [1] (283.15 K) amounted to 1212.99 ± 1 kg/m3; in data set [1] (288.15 K) it was 1208.01 ± 1 kg/m3; in data set [1] (293.15 K) it was 1203.05 ± 1 kg/m3; in data set [1] (298.15 K), 1198.2 ± 1 kg/m3; in data set [1] (303.15 K), 1193.25 ± 1 kg/m3. Also, the refractive index stood at 1.55729 ± 0.00031 in data set [2] (283.15 K); 1.55485 ± 0.00031 in data set [2] (288.15 K); 1.55234 ± 0.00031 in data set [2] (293.15 K); 1.54992 ± 0.00031 in data set [2] (298.15 K); 1.54746 ± 0.00031 in data set [2] (303.15 K).
Turning to `COc1ccccc1` [anisole], the mass density in data set [1] (283.15 K) was found to be 1003.3 ± 1 kg/m3; in data set [1] (288.15 K), 998.62 ± 1 kg/m3; in data set [1] (293.15 K), 994.01 ± 1 kg/m3; in data set [1] (298.15 K), 989.32 ± 1 kg/m3; in data set [1] (303.15 K), 984.59 ± 1 kg/m3. Also, the refractive index in data set [2] (283.15 K) is given as 1.52242 ± 0.00031; in data set [2] (288.15 K), 1.51985 ± 0.00031; in data set [2] (293.15 K) it was 1.51724 ± 0.00031; in data set [2] (298.15 K) it was 1.5146 ± 0.00032; in data set [2] (303.15 K), 1.51191 ± 0.00032.
On to `Fc1ccccc1` [fluorobenzene], for which the mass density was found to be 1036.89 ± 1 kg/m3 in data set [1] (283.15 K); 1030.93 ± 1 kg/m3 in data set [1] (288.15 K); 1024.96 ± 1 kg/m3 in data set [1] (293.15 K); 1019.07 ± 1 kg/m3 in data set [1] (298.15 K); 1013.03 ± 1 kg/m3 in data set [1] (303.15 K). Besides, the refractive index was 1.47152 ± 0.00032 in data set [2] (283.15 K); 1.46859 ± 0.00032 in data set [2] (288.15 K); 1.46571 ± 0.00032 in data set [2] (293.15 K); 1.46283 ± 0.00032 in data set [2] (298.15 K); 1.45989 ± 0.00032 in data set [2] (303.15 K).
Turning to `CCc1ccccc1` [ethylbenzene] + C=C[Si](C)(C)O[Si](C)(C)C=C, the refractive index in data set [3] (283.15 K) came out at 1.50118 ± 0.00032; in data set [3] (288.15 K) it was 1.49845 ± 0.00032; in data set [3] (293.15 K), 1.49575 ± 0.00032; in data set [3] (298.15 K), 1.49301 ± 0.00032; in data set [3] (303.15 K) it was 1.4903 ± 0.00032. For the same compound, the mass density in data set [4] (283.15 K) stood at 875.69 ± 1 kg/m3; in data set [4] (288.15 K), 871.3 ± 1 kg/m3; in data set [4] (293.15 K), 866.9 ± 1 kg/m3; in data set [4] (298.15 K), 862.58 ± 1 kg/m3; in data set [4] (303.15 K), 858.16 ± 1 kg/m3.
Turning to `COc1ccccc1` [anisole] + C=C[Si](C)(C)O[Si](C)(C)C=C, the refractive index in data set [3] (283.15 K) worked out at 1.52242 ± 0.00031; in data set [3] (288.15 K), 1.51985 ± 0.00031; in data set [3] (293.15 K) it was 1.51724 ± 0.00031; in data set [3] (298.15 K), 1.5146 ± 0.00032; in data set [3] (303.15 K) it was 1.51191 ± 0.00032. The mass density is 1003.3 ± 1 kg/m3 in data set [4] (283.15 K); 998.62 ± 1 kg/m3 in data set [4] (288.15 K); 994.01 ± 1 kg/m3 in data set [4] (293.15 K); 989.32 ± 1 kg/m3 in data set [4] (298.15 K); 984.59 ± 1 kg/m3 in data set [4] (303.15 K).
On to `Clc1ccccc1` [chlorobenzene], for which the mass density came out at 1117.29 ± 1 kg/m3 in data set [1] (283.15 K); 1111.89 ± 1 kg/m3 in data set [1] (288.15 K); 1106.55 ± 1 kg/m3 in data set [1] (293.15 K); 1101.16 ± 1 kg/m3 in data set [1] (298.15 K); 1095.79 ± 1 kg/m3 in data set [1] (303.15 K). In addition, the refractive index in data set [2] (283.15 K) worked out at 1.52992 ± 0.00032; in data set [2] (288.15 K) it was 1.52722 ± 0.00032; in data set [2] (293.15 K), 1.52446 ± 0.00032; in data set [2] (298.15 K), 1.52168 ± 0.00032; in data set [2] (303.15 K), 1.51893 ± 0.00032.
On to `C=C[Si](C)(C)O[Si](C)(C)C=C` [1,3-diethenyl-1,1,3,3-tetramethyldisiloxane], for which the mass density in data set [1] (283.15 K) is listed as 822.67 ± 1 kg/m3; in data set [1] (288.15 K), 817.77 ± 1 kg/m3; in data set [1] (293.15 K) it was 812.92 ± 1 kg/m3; in data set [1] (298.15 K), 808 ± 1 kg/m3; in data set [1] (303.15 K), 803.07 ± 1 kg/m3. Besides, the refractive index came out at 1.41766 ± 0.00032 in data set [2] (283.15 K); 1.415 ± 0.00032 in data set [2] (288.15 K); 1.41236 ± 0.00032 in data set [2] (293.15 K); 1.4097 ± 0.00032 in data set [2] (298.15 K); 1.40707 ± 0.00032 in data set [2] (303.15 K).
For the compound `Fc1ccccc1` [fluorobenzene] + C=C[Si](C)(C)O[Si](C)(C)C=C, the refractive index in data set [3] (283.15 K) was found to be 1.47152 ± 0.00032; in data set [3] (288.15 K) it was 1.46859 ± 0.00032; in data set [3] (293.15 K), 1.46571 ± 0.00032; in data set [3] (298.15 K), 1.46283 ± 0.00032; in data set [3] (303.15 K), 1.45989 ± 0.00032. In addition, the mass density in data set [4] (283.15 K) is 1036.89 ± 1 kg/m3; in data set [4] (288.15 K), 1030.93 ± 1 kg/m3; in data set [4] (293.15 K), 1024.96 ± 1 kg/m3; in data set [4] (298.15 K), 1019.07 ± 1 kg/m3; in data set [4] (303.15 K), 1013.03 ± 1 kg/m3.
As to `O=[N+]([O-])c1ccccc1` [nitrobenzene] + C=C[Si](C)(C)O[Si](C)(C)C=C, the refractive index in data set [3] (283.15 K) is on record as 1.55729 ± 0.00031; in data set [3] (288.15 K), 1.55485 ± 0.00031; in data set [3] (293.15 K), 1.55234 ± 0.00031; in data set [3] (298.15 K) it was 1.54992 ± 0.00031; in data set [3] (303.15 K), 1.54746 ± 0.00031. For the same compound, the mass density in data set [4] (283.15 K) came to 1212.99 ± 1 kg/m3; in data set [4] (288.15 K), 1208.01 ± 1 kg/m3; in data set [4] (293.15 K), 1203.05 ± 1 kg/m3; in data set [4] (298.15 K), 1198.2 ± 1 kg/m3; in data set [4] (303.15 K), 1193.25 ± 1 kg/m3.
